Test [1] deals with Staphylococcus aureus. Nature of the test: Antibacterial activity against Staphylococcus aureus. It counts as functional.
Another test has as its system Bacillus cereus. Put plainly: Antibacterial activity against Bacillus cereus. Type of test: functional.
The subject of another test is Rattus norvegicus. Nature of the test: Antihyperglycemic activity in STZ/nicotinamide-induced type2 diabetic Wistar rat model assessed as blood glucose level at 100 mg/kg, po measured for 14 days post dose. Type of test: functional.
A short description of test [2]: Antiproliferative activity against human NCI-H226 cells after 72 hrs by MTT assay. The settings on record: NCI-H226, 72 h. Type of test: functional.
The nature of test [3]: Antiproliferative activity against human NPC-TW01 cells after 72 hrs by MTT assay. It counts as functional. The settings on record: NPC-TW01, 72 h.
The target of test [4] is T1, Prostaglandin G/H synthase 1 (Ovis aries, UniProt P05979).
T1 sequence (P05979 whole entry): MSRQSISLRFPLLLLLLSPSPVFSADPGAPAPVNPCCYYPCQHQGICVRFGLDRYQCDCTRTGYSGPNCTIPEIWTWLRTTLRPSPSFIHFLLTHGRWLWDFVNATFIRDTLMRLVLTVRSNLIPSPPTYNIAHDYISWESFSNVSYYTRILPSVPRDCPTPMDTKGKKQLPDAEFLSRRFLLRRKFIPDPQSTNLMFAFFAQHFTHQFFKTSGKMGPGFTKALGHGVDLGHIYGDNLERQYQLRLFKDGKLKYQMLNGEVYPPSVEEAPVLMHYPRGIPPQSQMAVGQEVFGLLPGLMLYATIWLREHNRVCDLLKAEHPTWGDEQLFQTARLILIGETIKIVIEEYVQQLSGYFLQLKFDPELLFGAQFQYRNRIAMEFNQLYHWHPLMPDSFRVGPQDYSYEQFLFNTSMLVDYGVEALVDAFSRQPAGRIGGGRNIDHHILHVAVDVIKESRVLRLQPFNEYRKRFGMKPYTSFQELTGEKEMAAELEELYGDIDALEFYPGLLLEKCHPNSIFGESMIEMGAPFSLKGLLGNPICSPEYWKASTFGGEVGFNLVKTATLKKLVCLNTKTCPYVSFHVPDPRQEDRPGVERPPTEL
Nature of the test: Inhibition of recombinant ovine COX1 assessed as reduction in PGF2alpha production from PGH2 by enzyme immunoassay.

The target in test [5] is T2, Prostaglandin G/H synthase 2 (Homo sapiens, UniProt P35354).
T2 sequence (P35354 whole entry): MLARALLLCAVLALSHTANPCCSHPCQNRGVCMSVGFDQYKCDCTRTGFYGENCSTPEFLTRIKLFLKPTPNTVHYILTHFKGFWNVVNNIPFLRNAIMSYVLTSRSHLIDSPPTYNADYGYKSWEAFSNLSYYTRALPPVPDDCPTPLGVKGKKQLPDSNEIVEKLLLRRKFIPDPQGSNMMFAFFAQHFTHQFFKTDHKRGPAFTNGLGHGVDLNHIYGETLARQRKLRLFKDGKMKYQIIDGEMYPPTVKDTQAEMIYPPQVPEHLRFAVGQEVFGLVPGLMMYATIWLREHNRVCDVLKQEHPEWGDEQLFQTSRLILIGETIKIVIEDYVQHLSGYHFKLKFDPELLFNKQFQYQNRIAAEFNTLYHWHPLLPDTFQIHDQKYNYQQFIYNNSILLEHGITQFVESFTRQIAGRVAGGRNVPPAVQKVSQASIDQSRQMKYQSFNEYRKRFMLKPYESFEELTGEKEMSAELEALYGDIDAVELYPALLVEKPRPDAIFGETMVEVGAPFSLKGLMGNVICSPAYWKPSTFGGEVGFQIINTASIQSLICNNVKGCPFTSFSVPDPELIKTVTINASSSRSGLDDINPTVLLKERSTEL
Put plainly: Inhibition of recombinant human COX2 assessed as reduction in PGF2alpha production from PGH2 by enzyme immunoassay.

A short description of test [6]: Selectivity index, ratio of IC50 for recombinant ovine COX1 to IC50 for recombinant human COX2.
In test [7] the test system is Escherichia coli. Nature of the test: Antibacterial activity against Escherichia coli NCIM 2685 by broth microdilution method. It counts as functional.
Test [8] concerns Mycobacterium tuberculosis. Nature of the test: Antimycobacterial activity against Mycobacterium tuberculosis H37Rv. Type of test: functional.
For test [9], the system named is Bovine viral diarrhea virus 1. Put plainly: Antiviral activity against Bovine viral diarrhea virus 1 infected in MDBK cells. It counts as functional, cell-based. The settings on record: Bovine viral diarrhea virus isolates and strains.
The subject of test [10] is Staphylococcus aureus. Put plainly: Antibacterial activity against Staphylococcus aureus NCTC 7447 by serial dilution method. It counts as functional.
Test [11] concerns Staphylococcus aureus. Nature of the test: Antibacterial activity against Staphylococcus aureus NCTC 7447 by agar diffusion method. Type of test: functional.
In test [12] the test system is Escherichia coli. Put plainly: Antibacterial activity against Escherichia coli MTCC 443 after 24 hrs by broth dilution method. It counts as functional. The settings on record: MTCC 443, 24 h.
In test [13] the test system is Bacillus subtilis. Nature of the test: Antibacterial activity against Bacillus subtilis by broth dilution method. Type of test: functional.
Test [14] deals with Bovine viral diarrhea virus 1. Nature of the test: Potency index, ratio of ribavirin EC50 to compound EC50 for Bovine viral diarrhea virus 1 infected in MDBK cells. Type of test: functional.
Test [15] has as its system Staphylococcus aureus. Put plainly: Antibacterial activity against Staphylococcus aureus after 16 hrs by serial dilution method. It counts as functional.
In test [16] the test system is Bacillus subtilis. Put plainly: Antibacterial activity against Bacillus subtilis after 16 hrs by serial dilution method. Type of test: functional.
Test [17] concerns Escherichia coli. Nature of the test: Antibacterial activity against Escherichia coli after 16 hrs by serial dilution method. Type of test: functional.
In another test the test system is Pseudomonas aeruginosa. Nature of the test: Antibacterial activity against Pseudomonas aeruginosa after 16 hrs by serial dilution method. Type of test: functional.
A short description of test [18]: Antifungal activity against Penicillium notatum NCIM 745 by broth microdilution method. It counts as functional. The settings on record: Penicillium chrysogenum.
Test [19] has as its system Bacillus subtilis. Put plainly: Antibacterial activity against Bacillus subtilis NCIM 2711 by broth microdilution method. It counts as functional.
For a further test, the system named is Aspergillus fumigatus. Nature of the test: Antifungal activity against Aspergillus fumigatus NCIM 535 by broth microdilution method. It counts as functional.
Test [20] is described as follows: Antidiabetic activity in albino mouse assessed as reduction in alloxan-induced plasma glucose level at 0.2 mmol/kg, po administered 3 days post alloxan challenge measured 1 to 3 hrs post dose by copper reduction based colorimetric assay relative to control. It counts as functional, organism-based.

≈ marks a conversion by molar mass, not a printed value.

Consider `O=C1C(c2cc(-c3ccc(Br)cc3)nn2-c2ccccc2)C(O)N(c2ccccc2)C(=S)N1c1ccccc1` (centres undefined), for which the MIC against Staphylococcus aureus [1] and in the test on Bacillus cereus was 31.2 µg/mL (≈ 52.5 µM) in each case. Take `COc1ccc(-n2cc(CC3Cc4cc(OC)c(OC)cc4C3=O)c(-c3cc4ccccc4oc3=O)n2)cc1` (centres undefined): in the test with Rattus norvegicus, the Activity was found to be 138 mg/dL. Consider `Cc1ccc(-c2cc(C(=O)Nc3ccc(N)cc3)n(-c3ccc4ccccc4n3)n2)cc1`, for which the GI50 came to 18 µM in [2] and 30 µM in [3]. `CC(=O)NC1=NN(C(C)=O)C(c2cn(-c3ccccc3)nc2-c2ccc([N+](=O)[O-])cc2)S1` (centres undefined): the IC50 in test [4] worked out at 70 µM; in test [5] it was 20 µM. In [6], the Ratio IC50 amounted to 3.5. Compound `O=C1/C(=C\c2cn(-c3ccccc3)nc2-c2ccc(O)cc2)SC(=S)N1c1ccc(Cl)cc1` registered an IC50 in the test with Escherichia coli [7] of 62.5 µg/mL (≈ 128 µM). `O=C1c2ccccc2NC(c2cn(-c3ccccc3)nc2-c2ccccc2)N1c1ccc(Cl)cc1` (centres undefined) showed a minimal inhibitory concentration (MIC) in [8] of 12.5 µg/mL (≈ 26.2 µM).

The compound `NC(=O)c1ncn([C@@H]2O[C@H](CO)[C@@H](O)[C@H]2O)n1` [RIBAVIRIN] displayed a 50% effective concentration (EC50) in test [9] of 1.3 µM. `CC(=O)Nc1ccc(/N=N/c2c(N)nn3c(-c4ccccc4Cl)c(C#N)c(=O)[nH]c23)cc1` came in with a minimal inhibitory concentration (MIC) against Staphylococcus aureus [10] of 110 µg/mL (≈ 246 µM). In the test on Staphylococcus aureus [11], the “inhibition zone (IZ)” value is 2.5 cm. Turning to `O=C1CSC(N2N=C(c3ccccc3[N+](=O)[O-])CC2c2cn(-c3ccccc3)nc2-c2ccc(F)cc2)=N1` (centres undefined), the MIC against Escherichia coli [12] came to 12.5 µg/mL (≈ 23.7 µM). In the test on Bacillus subtilis [13], `COc1ccc(-n2c(-c3cn(-c4ccccc4)nc3-c3ccccc3)nc3ccccc3c2=O)cc1` registered an MIC of 62.5 µg/mL (≈ 133 µM). `Cc1ccc(-n2nc(C)c3c2CN(c2ccccc2)C3=O)cc1`: the response in test [9] was half-maximal at 0.12 µM (EC50). The “Ratio EC50” value in test [14] is 10.

Regarding `CC(=O)NC1=NN(C(C)=O)C(c2cn(-c3ccccc3)nc2-c2ccc(O)cc2)S1` (centres undefined), the IC50 in [4] was 73 µM; in test [5] it was 14 µM. Moreover, the Ratio IC50 in [6] is 5.21. Consider `Sc1nncn1/N=C/c1cn[nH]c1-c1ccccc1`, for which the MIC against Staphylococcus aureus [15], in the test with Bacillus subtilis [16], in the test on Escherichia coli [17] and against Pseudomonas aeruginosa was 1.61 µg/mL (≈ 5.96 µM) throughout. With `O=C(O)n1nc(-c2ccccc2)cc1-c1cc2ccccc2nc1Cl`, the MIC in test [18] was found to be 57 µg/mL (≈ 163 µM); in the test on Bacillus subtilis [19], 54 µg/mL (≈ 154 µM); in the test on Escherichia coli [7] it was 43 µg/mL (≈ 123 µM).

Regarding `COc1cc2c(cc1OC)C(=O)C(Cc1cn(-c3ccc(C)cc3)nc1-c1cc3ccccc3oc1=O)C2` (centres undefined), the Activity in the test with Rattus norvegicus worked out at 115 mg/dL.

In the case of `Nc1ccc(NC(=O)c2cc(-c3ccc(Cl)cc3)nn2-c2ccccc2)cc1`, the GI50 was 18 µM in test [2] and 30 µM in test [3]. Regarding `Nc1ccc2nc(Cl)c(-c3cc(-c4ccccc4)nn3C(=O)O)cc2c1`, the MIC against Aspergillus fumigatus came out at 48 µg/mL (≈ 132 µM); in test [18], 46 µg/mL (≈ 126 µM); in the test on Bacillus subtilis [19] it was 44 µg/mL (≈ 121 µM). For the compound `Cc1c(Br)c(C(F)(F)F)nn1-c1ccc(S(=O)(=O)NC(=O)Nc2ccccc2)cc1`, the inhibition in [20] amounted to 20%.

Values taken from ChEMBL document CHEMBL3853301, “The therapeutic voyage of pyrazole and its analogs: A review” (Eur J Med Chem, 2016).
